16 molecules from US12187713B2, “Immunomodulators, compositions and methods thereof” (Betta Pharmaceuticals Co., Ltd, priority 2019, dated 2025) can be followed below.

Where a name gives a salt, the structure may show the parent alone.

For the first experiment, the target named is PD-1/PD-L1 (Homo sapiens (Human), UniProt Q9NZQ7). Nature of the experiment: PD-1/PD-L1 Binding Assay (Alphascreen). The conditions noted are these: numeric values. The method, boiled down: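 PD-1/PD-L1 binding detected by anti-6×His acceptor and streptavidin donor beads after 120 min in the dark at 25 °C. Beforehand, the two proteins were incubated 15 min at 25 °C with inhibitor at 0.015–300 nM (1% DMSO). IC50 comes from a log concentration–response curve.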
Chain of PD-1/PD-L1 (Q9NZQ7 19-238): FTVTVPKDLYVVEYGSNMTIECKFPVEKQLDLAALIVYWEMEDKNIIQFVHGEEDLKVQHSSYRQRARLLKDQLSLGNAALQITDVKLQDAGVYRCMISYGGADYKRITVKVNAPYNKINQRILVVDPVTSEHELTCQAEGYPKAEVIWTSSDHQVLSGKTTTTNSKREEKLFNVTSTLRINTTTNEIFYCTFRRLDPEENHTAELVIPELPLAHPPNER
Broadly, the IC50 is the concentration that gives 50% inhibition. Low values mean inhibition by little substance, high ones a need for much substance. With `COc1nc(OCc2cccc(-c3cccc(-c4nc5cc(CN6CCC[C@H]6C(=O)O)c(OC(F)F)cc5o4)c3C)c2C)nc(OC)c1CN1CCCC1` [Example 212, ((6-(difluoromethoxy)-2-(3′-(((4,6-dimethoxy-5-(pyrrolidin-1-ylmethyl)pyrimidin-2-yl)oxy)methyl)-2,2′-dimethyl-[1,1′-biphenyl]-3-yl)benzo[d]oxazol-5-yl)methyl)-L-proline], the concentration for half-maximal inhibition (IC50) is 8.4 nM.
As for `Cc1c(-c2nc3cc(CN4CCC[C@H]4C(=O)O)c(OC(F)F)cc3o2)cccc1-c1cccc(-c2nc3cc(CN4CCCC4)c(F)c(F)c3o2)c1C#N` [Example 118, ((2-(2′-cyano-3′-(6,7-difluoro-5-(pyrrolidin-1-ylmethyl)benzo[d]oxazol-2-yl)-2-methyl-[1,1′-biphenyl]-3-yl)-6-(difluoromethoxy)benzo[d]oxazol-5-yl)methyl)-L-proline], the 50% inhibitory concentration (IC50) stood at 78 nM.
As for `Cc1c(-c2nc3cc(CN4CCCC4)c(F)c(F)c3[nH]2)cccc1-c1cccc(-c2nc3cc(CN4CCC[C@H]4C(=O)O)c(OC(F)F)cc3o2)c1C` [Example 296], the IC50 stood at 12 nM.
On the same count and under the same terms, for `Cc1c(-c2ccc(CN3CCCC3)c(OC(F)(F)F)c2)cccc1-c1cccc(-c2nc3cc(CN4CCC[C@H]4C(=O)O)c(OC(F)F)cc3o2)c1C` [Example 232, ((6-(difluoromethoxy)-2-(2,2′-dimethyl-4″- (pyrrolidin-1-ylmethyl)-3″-(trifluoromethoxy)-[1,1′:3′,1″-terphenyl]-3-yl)benzo[d]oxazol-5-yl)methyl)-L-proline] the value was 7.8 nM; for `Cc1c(-c2nc3cc(CN4CCC[C@H]4C(=O)O)c(OC(F)F)cc3o2)cccc1-c1cccc(-c2nc3cc(CN4CCCC4)c(OC(F)F)cc3o2)c1F` [Example 6, ((6-(difluoromethoxy)-2-(3′-(6-(difluoromethoxy)-5-(pyrrolidin-1-ylmethyl)benzo[d]oxazol-2-yl)-2′-fluoro-2-methyl-[1,1′-biphenyl]-3-yl)benzo[d]oxazol-5-yl)methyl)-L-proline], 4.3 nM; for `Cc1c(NC(=O)c2cn3c(n2)CNCC3)cccc1-c1cccc(-c2nc3cc(CN4CCC[C@H]4C(=O)O)c(OC(F)F)cc3o2)c1C` [Example 303, ((6-(difluoromethoxy)-2-(2,2′-dimethyl-3′-(5,6,7,8-tetrahydroimidazo[1,2-a]pyrazine-2-carboxamido)-[1,1′-biphenyl]-3-yl)benzo[d]oxazol-5-yl)methyl)-L-proline], 1.6 nM.
The same measure, in the same setting: for `Cc1c(-c2nc3cc(CN4CCC4(C)O)ccc3o2)cccc1-c1cccc(-c2nc3cc(CN4CCC[C@H]4C(=O)O)c(OC(F)F)cc3o2)c1C` (stereo partly drawn) [Example 104, ((6-(difluoromethoxy)-2-(3′-(5-((2-hydroxy-2-methylazetidin-1-yl)methyl)benzo[d]oxazol-2-yl)-2,2′-dimethyl-[1,1′-biphenyl]-3-yl)benzo[d]oxazol-5-yl)methyl)-L-proline] the value was 0.19 nM; for `CCN(CC)C1CN(Cc2cc3nc(-c4cccc(-c5cccc(-c6nc7cc(CN8CCC[C@H]8C(=O)O)c(OC(F)F)cc7o6)c5C)c4C)oc3cc2OC(F)F)C1` [Example 68, ((2-(3′-(5-((3-(diethylamino)azetidin-1-yl)methyl)-6-(difluoromethoxy)benzo[d]oxazol-2-yl)-2,2′-dimethyl-[1,1′-biphenyl]-3-yl)-6-(difluoromethoxy)benzo[d]oxazol-5-yl)methyl)-L-proline], 2.4 nM; for `COc1cc(-c2cccc(-c3cccc(-c4nc5cc(CN6CCC[C@H]6C(=O)O)c(OC(F)F)cc5o4)c3C)c2C)cc(OC)c1CN1CCCC1` [Example 254, ((6-(difluoromethoxy)-2-(3″,5″-dimethoxy-2,2′-dimethyl-4″-(pyrrolidin-1-ylmethyl)-[1,1′:3′,1″- terphenyl]-3-yl)benzo[d]oxazol-5-yl)methyl)-L-proline hydrochloride], 16 nM.
For `Cc1c(-c2nc3cc(CN4CCC[C@@H]4C(=O)O)c(OC(F)F)cc3o2)cccc1-c1cccc(-c2nc3cc(CN4CCC(C)C4)cc(C(F)(F)F)c3o2)c1C` (stereo partly drawn) [Example 90, ((6-(difluoromethoxy)-2-(2,2′-dimethyl-3′-(5-((3-methylpyrrolidin-1-yl)methyl)-7-(trifluoromethyl)benzo [d]oxazol-2-yl)-[1,1′-biphenyl]-3-yl)benzo[d]oxazol-5-yl)methyl)-D-proline], the half-maximal inhibitory concentration (IC50) was 0.88 nM.

The experiment is the same for the next values; noted with them: range symbols.
Turning to `CC[C@@H]1CCN1Cc1cc2nc(-c3cccc(-c4cccc(-c5nc6cc(CN7CCC[C@H]7C(=O)O)c(OC(F)F)cc6o5)c4C)c3C)oc2cc1OC(F)F` [Example 42, ((6-(difluoromethoxy)-2-(3′-(6-(difluoromethoxy)-5-(((R)-2-ethylazetidin-1-yl)methyl)benzo[d]oxazol-2-yl)-2,2′-dimethyl-[1,1′-biphenyl]-3-yl)benzo[d]oxazol-5-yl)methyl)-L-proline], the half-inhibitory concentration (IC50) lay within 0.1 to 5 nM.
On the same count and under the same terms, for `Cc1c(-c2nc3cc(CN4CCC[C@H]4C(=O)O)c(OC(F)F)cc3o2)cccc1-c1cccc(-c2cnc(CN3CCCC3)c(F)c2)c1CF` [Example 269, ((6-(difluoromethoxy)-2-(3′-(5-fluoro-6-(pyrrolidin-1-ylmethyl)pyridin-3-yl)-2′-(fluoromethyl)-2-methyl-[1,1′-biphenyl]-3-yl)benzo[d]oxazol-5-yl)methyl)-L-proline] the value was 5 to 50 nM.
For the molecule `Cc1c(-c2nc3cc(CN4CCC45COC5)ccc3o2)cccc1-c1cccc(-c2nc3cc(CN4CCC[C@H]4C(=O)O)c(OC(F)F)cc3o2)c1C` [Example 106, ((2-(3′-(5-((6-oxa-1-azaspiro[3.3]heptan-1-yl)methyl)benzo[d]oxazol-2-yl)-2,2′-dimethyl-[1,1′-biphenyl]-3-yl)-6-(difluoromethoxy)benzo[d]oxazol-5-yl)methyl)-L-proline], the IC50 fell in the range of 0.1 to 5 nM.
`Cc1c(-c2nc3cc(CN4CC(C)(CO)C4)c(OC(F)F)cc3o2)cccc1-c1cccc(-c2nc3cc(CN4CCC[C@H]4C(=O)O)c(OC(F)F)cc3o2)c1C` [Example 78, ((6-(difluoromethoxy)-2-(3′-(6-(difluoromethoxy)-5-((3-(hydroxymethyl)-3-methylazetidin-1-yl)methyl)benzo[d]oxazol-2-yl)-2,2′-dimethyl-[1,1′-biphenyl]-3-yl)benzo[d]oxazol-5-yl)methyl)-L-proline] displayed an IC50 of 0.1 to 5 nM.
For `Cc1c(-c2nc3cc(CN4CCC[C@H]4C(=O)O)c(OC(F)F)cc3o2)cccc1-c1cccc(-c2nc3cc(CN4CCC(C)(C#N)C4)cc(C#N)c3o2)c1C` (stereo partly drawn) [Example 316, ((2-(3′-(7-cyano-5-((3-cyano-3-methylpyrrolidin-1-yl)methyl)benzo[d]oxazol-2-yl)-2,2′-dimethyl-[1,1′-biphenyl]-3-yl)-6-(difluoromethoxy)benzo[d]oxazol-5-yl)methyl)-L-proline], the half-maximal inhibitory concentration (IC50) was 5 to 50 nM.
The same measure, in the same setting: the result for `Cc1c(-c2ccc([C@H](N)C(=O)O)cc2)cccc1-c1cccc(-c2nc3cc(CN4CCC[C@H]4C(=O)O)c(OC(F)F)cc3o2)c1C` [Example 256, ((2-(4″-((S)-amino(carboxy)methyl)-2,2′-dimethyl-[1,1′:3′,1″-terphenyl]-3-yl)-6-(difluoromethoxy)benzo[d]oxazol-5-yl)methyl)-L-proline] reads over 50 nM.
